Results taken from US20250230193A1, “CYCLIC COMPOUND HAVING SELECTIVE KRAS INHIBITORY EFFECT ON HRAS AND NRAS” (CHUGAI SEIYAKU KABUSHIKI KAISHA, priority 2022, published 2025).

Experiments:
[1] = target: GDP-bound HRAS wild-type protein (Homo sapiens, UniProt P01112); experiment: Binding to HRAS by surface plasmon resonance (SPR), Single Cycle Kinetics; conditions: KD ratio, GDP-bound HRAS wild-type vs GDP-bound KRAS wild-type, SPR
[2] = target: GDP-bound NRAS wild-type protein (Homo sapiens, UniProt P01111); experiment: Binding to NRAS by surface plasmon resonance (SPR), Single Cycle Kinetics; conditions: KD ratio, GDP-bound NRAS wild-type vs GDP-bound KRAS wild-type, SPR
GDP-bound NRAS wild-type protein, sequence (P01111 whole entry): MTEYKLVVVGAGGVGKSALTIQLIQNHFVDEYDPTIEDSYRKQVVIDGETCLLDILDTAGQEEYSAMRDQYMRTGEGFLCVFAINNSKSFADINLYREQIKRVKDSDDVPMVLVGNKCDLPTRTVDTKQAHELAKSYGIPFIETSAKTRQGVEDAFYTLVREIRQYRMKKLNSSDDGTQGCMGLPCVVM

GDP-bound HRAS wild-type protein, sequence (P01112 whole entry): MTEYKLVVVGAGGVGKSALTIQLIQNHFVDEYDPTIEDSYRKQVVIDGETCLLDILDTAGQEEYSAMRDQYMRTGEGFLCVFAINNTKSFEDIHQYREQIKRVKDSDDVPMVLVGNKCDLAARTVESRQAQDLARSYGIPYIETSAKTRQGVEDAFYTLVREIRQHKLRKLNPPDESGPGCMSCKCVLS

| Structure (SMILES) | HRAS/KRAS (ratio of KD value with respect to HRAS to KD value with respect to KRAS) [1] | NRAS/KRAS (ratio of KD value with respect to NRAS to KD value with respect to KRAS) [2] |
| --- | --- | --- |
| CCO[C@@H]1C[C@H]2C(=O)NC3(CCC3)C(=O)N(C)[C@@H](C3CCCC3)C(=O)N(C)[C@H](C(=O)N(C)C)CC(=O)N(C)[C@@H](Cc3ccc(Cl)c(Cl)c3)C(=O)N[C@@H]([C@@H](C)CC)C(=O)N(C)CC(=O)N(C)[C@H]3CCCCCN(C3=O)[C@@H](Cc3ccc(F)cc3)C(=O)N(C)CC(=O)N[C@@H](CCc3cc(F)c(C(F)(F)F)c(F)c3)C(=O)N2C1 [PP1158] | B (a compound having 3 or more and less than 10 is denoted as B) | B (a compound having 3 or more and less than 10 is denoted as B) |
| CCCO[C@@H]1C[C@H]2C(=O)NC3(CCC3)C(=O)N(C)[C@@H](C3CCCC3)C(=O)N(C)[C@H](C(=O)N3CCOCC3)CC(=O)N(C)[C@@H](CC(C)C)C(=O)N[C@@H]([C@@H](C)CC)C(=O)N(C)CC(=O)N(C)[C@H]3CCCCN(C3=O)[C@@H](Cc3ccc(C(F)(F)F)cc3)C(=O)N(C)CC(=O)N[C@@H](CCc3cc(F)c(C(F)(F)F)c(F)c3)C(=O)N2C1 [PP1159] | B (a compound having 3 or more and less than 10 is denoted as B) | C (A compound having a KD ratio of 0.1 or more and less than 3 is denoted as C) |
| CC[C@H](C)[C@@H]1NC(=O)[C@H](CC(C)C)N(C)C(=O)C[C@@H](C(=O)N2CCOCC2)N(C)C(=O)[C@H](C2CCCC2)N(C)C(=O)C2(CCC2)NC(=O)[C@@H]2C[C@@H](OCC(C)C)CN2C(=O)[C@H](CCc2cc(F)c(C(F)(F)F)c(F)c2)NC(=O)CN(C)C(=O)[C@H](Cc2ccc(C(F)(F)F)cc2)N2CCCC[C@@H](C2=O)N(C)C(=O)CN(C)C1=O [PP1160] | B (a compound having 3 or more and less than 10 is denoted as B) | B (a compound having 3 or more and less than 10 is denoted as B) |
| CCCO[C@@H]1C[C@H]2C(=O)NC3(CCC3)C(=O)N(C)[C@@H](C3CCCC3)C(=O)N(C)[C@H](C(=O)N3CCOCC3)CC(=O)N(C)[C@@H](CC(C)C)C(=O)N[C@@H]([C@@H](C)CC)C(=O)N(C)CC(=O)N(C)[C@H]3CCCCCN(C3=O)[C@@H](Cc3ccc(C(F)(F)F)cc3)C(=O)N(C)CC(=O)N[C@@H](CCc3cc(F)c(C(F)(F)F)c(F)c3)C(=O)N2C1 [PP1161] | B (a compound having 3 or more and less than 10 is denoted as B) | B (a compound having 3 or more and less than 10 is denoted as B) |
| CCO[C@@H]1C[C@H]2C(=O)NC3(CCC3)C(=O)N(C)[C@@H](C3CCCC3)C(=O)N(C)[C@H](C(=O)N3CCOCC3)CC(=O)N(C)[C@@H](Cc3cccs3)C(=O)N[C@@H]([C@@H](C)CC)C(=O)N(C)CC(=O)N(C)[C@H]3CCCCCN(C3=O)[C@@H](Cc3ccc(C(F)(F)F)cc3)C(=O)N(C)CC(=O)N[C@@H](CCc3cc(F)c(C(F)(F)F)c(F)c3)C(=O)N2C1 [PP1163] | B (a compound having 3 or more and less than 10 is denoted as B) | B (a compound having 3 or more and less than 10 is denoted as B) |
| CCO[C@@H]1C[C@H]2C(=O)NC3(CCC3)C(=O)N(C)[C@@H](C3CCCC3)C(=O)N(C)[C@H](C(=O)N3CCOCC3)CC(=O)N(C)[C@@H](Cc3ccsc3)C(=O)N[C@@H]([C@@H](C)CC)C(=O)N(C)CC(=O)N(C)[C@H]3CCCCCN(C3=O)[C@@H](Cc3ccc(C(F)(F)F)cc3)C(=O)N(C)CC(=O)N[C@@H](CCc3cc(F)c(C(F)(F)F)c(F)c3)C(=O)N2C1 [PP1164] | B (a compound having 3 or more and less than 10 is denoted as B) | B (a compound having 3 or more and less than 10 is denoted as B) |
